Results taken from patent US4048431A, “Alkylated derivatives of antibiotic BM123γ” (American Cyanamid Company, priority 1975, dated 1977).

Tested on: Escherichia coli US311
Assay: in vivo protection of mice against lethal Escherichia coli US311 infection (single subcutaneous dose)
Design: species or system Escherichia coli US311 in Carworth Farms CF-1 mice
Conditions: Carworth Farms CF-1 mice, about 20 gm., infected intraperitoneally with lethal dose of E. coli US311 (10^-3 TSP dilution of 5 hour TSP blood culture)
Protocol: These new substances show high in vivo antibacterial activity in mice against Escherichia coli US311 when administered by a single subcutaneous dose to groups of Carworth Farms CF-1 mice, weight about 20 gm., infected intraperitoneally with a lethal dose of this bacteria in a 10^- 3 trypticase soy broth TSP dilution of a 5 hour TSP blood culture. In Table VI below is set forth the in vivo activity of typical products of this invention (prepared from the indicated carbonyl reagents) against Escherichia coli US311 in mice. The activity is expressed in terms of the ED50 or the dose in mg./kg. of body weight required to protect 50% of the mice against E. coli.

Substance | ED50 (dose required to protect 50% of the mice against E. coli) | ED50 (dose required to protect 50% of the mice against E. coli) (listed as 1-methyl-2,2-dimethylpropyl-BM123γ)
1-methyl-2-(β-indolyl)ethyl-BM123γ | 0.12 mg./kg. of body weight | –
2-cyclopentylcyclopentyl-BM123γ | 0.37 mg./kg. of body weight | –
1-ethylnonyl-BM123γ | 0.38 mg./kg. of body weight | –
2-cyclohexenyl-BM123γ | 0.25 mg./kg. of body weight | –
1-methyl-2-(3-chlorophenyl)ethyl-BM123γ | 0.38 mg./kg. of body weight | –
(2-carboxy-1-carboxymethyl)ethyl-BM123γ | 0.5 mg./kg. of body weight | –
1-methyloctyl-BM123γ | 0.37 mg./kg. of body weight | –
1-methyl-2-hydroxypropyl-BM123γ | 0.37 mg./kg. of body weight | –
1-(carbethoxymethyl)butyl-BM123γ | 0.75 mg./kg. of body weight | –
1-propylpentyl-BM123γ | 0.39 mg./kg. of body weight | –
2-acetamido-1-methylpropyl-BM123γ | 0.50 mg./kg. of body weight | –
2-ethylhexyl-BM123γ | 0.37 mg./kg. of body weight | –
1-methyl-2-phenylethyl-BM123γ | 0.18 mg./kg. of body weight | –
1,2-dimethylpentyl-BM123γ | 0.18 mg./kg. of body weight | –
1-methyl-2-(3-methoxyphenyl)ethyl-BM123γ | 0.30 mg./kg. of body weight | –
isopropyl-BM123γ | < 0.12 mg./kg. of body weight | –
1,3,3-trimethylbutyl-BM123γ | 0.18 mg./kg. of body weight | –
1,3-dimethylbutyl-BM123γ | < 0.12 mg./kg. of body weight | –
1-methyl-2-phenoxyethyl-BM123γ | 0.3 mg./kg. of body weight | –

Substance | ED50 (dose required to protect 50% of the mice against E. coli) | ED50 (dose required to protect 50% of the mice against E. coli) (listed as 1-methyl-2,2-dimethylpropyl-BM123γ)
2-(p-methoxyphenyl)ethyl-BM123γ | 0.18 mg./kg. of body weight | –
1-methylnonyl-BM123γ | 0.18 mg./kg. of body weight | –
cyclooctyl-BM123γ | 0.18 mg./kg. of body weight | –
5-methoxyl-2-tetralyl-BM123γ | 0.18 mg./kg. of body weight | –
cyclopentyl-BM123γ | 0.25 mg./kg. of body weight | –
2-ethylcyclopentyl-BM123γ | 0.12 mg./kg. of body weight | –
1-(3-pyridyl)ethyl-BM123γ | 0.75 mg./kg. of body weight | –
cyclobutyl-BM123γ | 0.38 mg./kg. of body weight | –
cyclohexyl-BM123γ | 0.75 mg./kg. of body weight | –
(1-methylcyclo-3-hexenyl)methyl-BM123γ | 0.18 mg./kg. of body weight | –
1-methyl-5-pentenyl-BM123γ | 0.18 mg./kg. of body weight | –
1-methyl-2-(N,N-dimethylamino)propyl-BM123γ | 1.5 mg./kg. of body weight | –
2,2-dimethylpropyl-BM123γ | 0.18 mg./kg. of body weight | –
1-methyl-3-(4-hydroxyphenyl)ethyl-BM123γ | 0.3 mg./kg. of body weight | –
cyclononyl-BM123γ | 0.18 mg./kg. of body weight | –
3-methylcyclopentyl-BM123γ | 0.25 mg./kg. of body weight | –
1,2,2-dimethylhydroxypropyl-BM123γ | 0.18 mg./kg. of body weight | –
1-methyl-4-(N,N-diethylamino)butyl-BM123γ | 0.5 mg./kg. of body weight | –
1-ethylpropyl-BM123γ | 0.12 mg./kg. of body weight | –

Substance | ED50 (dose required to protect 50% of the mice against E. coli) | ED50 (dose required to protect 50% of the mice against E. coli) (listed as 1-methyl-2,2-dimethylpropyl-BM123γ)
1-methyl-2-(4-chlorophenyl)ethyl-BM123γ | 0.25 mg./kg. of body weight | –
1-ethyl-3-chloropropyl-BM123γ | 0.12 mg./kg. of body weight | –
3,5-dimethylcyclohexyl-BM123γ | < 0.12 mg./kg. of body weight | –
1,2,4-trimethylheptyl-BM123γ | 0.37 mg./kg. of body weight | –
1-cyclopentylethyl-BM123γ | 0.18 mg./kg. of body weight | –
1-methyl-penten(-4-)yl-BM123γ | 0.38 mg./kg. of body weight | –
1-methyl-3-(N,N-diethylamino)propyl-BM123γ | 0.18 mg./kg. of body weight | –
2,4,4-trimethylcyclopentyl-BM123γ | 0.3 mg./kg. of body weight | –
1,2,2-trimethylpropyl-BM123γ | < 0.12 mg./kg. of body weight | 0.18 mg./kg. of body weight
1-methyl-2-(2-chlorophenyl)ethyl-BM123γ | 0.37 mg./kg. of body weight | –
trans-2-methyl-2-pentenyl-BM123γ | 0.18 mg./kg. of body weight | –
1,3,3-trimethylcyclopentyl-BM123γ | 0.37 mg./kg. of body weight | –
2-(1-cyclohexen)cyclohexyl-BM123γ | 0.19 mg./kg. of body weight | –
1,3-dimethylbuten(-2-)yl-BM123γ | 0.3 mg./kg. of body weight | –
1-methyl-2-chloro-2-carbethoxyethyl-BM123γ | 1.5 mg./kg. of body weight | –
1-methylheptyl-BM123γ | 0.38 mg./kg. of body weight | –
1-methyltridecyl-BM123γ | 2.0 mg./kg. of body weight | –
decahydro-3-methyl-2-naphthyl-BM123γ | 0.37 mg./kg. of body weight | –
1-methyl-butyn(-2-)yl-BM123γ | < 2.0 mg./kg. of body weight | –
